“Also recorded” adds a separate entry of the source. Read-outs that look alike come from different tables or passages of the source.
What was measured:
[1] = system: marine enrichment cultures; test: Inhibition of sulfide production (Cline assay) in marine enrichment cultures; format: cell-based; details: for IC50: read-out: IC50 Seawater Sulfide Production
[2] = system: Desulfovibrio cell suspensions; details: molybdate treated, after 60 minutes; cited from earlier work
[3] = system: nitrate reducing bacteria; details: molybdate treated cell suspensions; cited from earlier work
[4] = system: marine enrichment cultures; test: organism not typed; format: cell-based; details: read-out: IC50 Seawater Growth
[5] = marine enrichment cultures, SI>2 classified as selective

| Molecule | selectivity and potency as inhibitor of sulfidogenesis versus growth, in words [1] | also measured |
| --- | --- | --- |
| N.NS(=O)(=O)O [ammonium sulfamate] | very weak and nonspecific inhibitors |  |
| [O-][Cl+2]([O-])O [chlorate] | selective inhibitors of sulfidogenesis |  |
| CS(C)(=O)=O [dimethyl sulfone] |  | selectivity and potency as inhibitor of sulfidogenesis versus growth, in words [1, 5]: very weak and nonspecific inhibitors |
| [O]=[Mo](=[O])([O-])[O-] [molybdate] | specific inhibitors of sulfide production | selectivity index (SI = growth IC50/sulfide IC50) [1]: 100; intracellular ATP relative to controls [2]: ~10%; intracellular ATP relative to controls [3]: ~80% |
| O=[N+]([O-])O [nitrate] | selective inhibitors | Growth/Sulfide Ratio [1]: 41.3; fold higher IC50 than MFP [1]: ~8 fold; IC50 [1]: 6.34 mM |
| O=NO [nitrite] | selective inhibitors | selectivity index (SI = growth IC50/sulfide IC50) [1]: ≈ 2 |
| [O-][Cl+3]([O-])([O-])O [perchlorate] | selective inhibitors of sulfidogenesis | IC50 [4]: 36.3 mM; Growth/Sulfide Ratio [1]: 11.19; IC50 [1]: 3.25 mM |
| [O-][I+3]([O-])([O-])O [periodate] |  | selectivity and potency as inhibitor of sulfidogenesis versus growth, in words [1, 5]: nonspecific, but potent inhibitors of all growth |
| O=[Se](=O)(O)O [selenate] | very potent and selective inhibitors of sulfate reduction |  |
| O=[Se](O)O [selenite] | very potent and selective inhibitors of sulfate reduction |  |
| O=S(=O)(O)O [sulfate] | only inhibited growth and sulfidogenesis at high millimolar concentrations |  |
| O=S(O)O [sulfite] | only inhibited growth and sulfidogenesis at high millimolar concentrations |  |
| O=[Te](=O)(O)O [tellurate] | very potent and selective inhibitors of sulfate reduction |  |
| O=[Te](O)O [tellurite] | very potent and selective inhibitors of sulfate reduction |  |
| OP(O)(O)=S [thiophosphate] | weak inhibitors and nonselective; also recorded: very weak, nonselective inhibitors of sulfidogenesis |  |
| [O]=[W](=[O])([O-])[O-] [tungstate] | specific inhibitors of sulfide production | selectivity index (SI = growth IC50/sulfide IC50) [1]: 589 |
| [O]=[V]([O-])([O-])[O-] [vanadate] | specific inhibitors of sulfide production |  |
| arsenate | not selective |  |
| methanesulfonate | very weak and nonspecific inhibitors |  |
| phosphite | weak inhibitors and nonselective; also recorded: very weak, nonselective inhibitors of sulfidogenesis |  |

Source: patent US20170198196A1, “METHODS FOR CONTROLLING SOURING IN ENGINEERED SYSTEMS” (The Regents of the University of California, priority 2014, published 2017)
